Assay: xn = mol fraction of the nth substance listed

CCCCn1cc[n+](C)c1.F[P-](F)(F)(F)(F)F + CO
Conditions | viscosity [mPa·s]
298.15 K, 101 kPa, x1 = 0.7082 | 45.95

CCc1ccccc1 + CO
viscosity [mPa·s], 101 kPa
Conditions | x2 = 0.1406 | x2 = 0.3326 | x2 = 0.5278 | x2 = 0.6721 | x2 = 0.7828 | x2 = 0.8113 | x2 = 0.8848
298.15 K | 0.6135 | 0.6134 | 0.6258 | 0.6323 | 0.6247 | 0.618 | 0.5991
308.15 K | 0.5262 | 0.5283 | 0.5395 | 0.5368 | 0.525 | 0.5202 | 0.5052

COC(C)(C)C + CO
298.15 K
Conditions | viscosity [mPa·s]
101 kPa, x1 = 0.0512 | 0.547
101 kPa, x1 = 0.0994 | 0.536
101 kPa, x1 = 0.1991 | 0.488
101 kPa, x1 = 0.3011 | 0.455
101 kPa, x1 = 0.4015 | 0.436
101 kPa, x1 = 0.4993 | 0.42
101 kPa, x1 = 0.6001 | 0.402
101 kPa, x1 = 0.7001 | 0.387
101 kPa, x1 = 0.8007 | 0.376
101 kPa, x1 = 0.8998 | 0.366
101 kPa, x1 = 0.9494 | 0.36
101.33 kPa, x1 = 0.0048 | 0.549
101.33 kPa, x1 = 0.0234 | 0.547
101.33 kPa, x1 = 0.0483 | 0.544
101.33 kPa, x1 = 0.0818 | 0.535
101.33 kPa, x1 = 0.1136 | 0.526
101.33 kPa, x1 = 0.1601 | 0.51
101.33 kPa, x1 = 0.1987 | 0.496
101.33 kPa, x1 = 0.2377 | 0.483
101.33 kPa, x1 = 0.2656 | 0.475
101.33 kPa, x1 = 0.3162 | 0.462
101.33 kPa, x1 = 0.3736 | 0.446
101.33 kPa, x1 = 0.4299 | 0.433
101.33 kPa, x1 = 0.481 | 0.42
101.33 kPa, x1 = 0.5141 | 0.413
101.33 kPa, x1 = 0.5796 | 0.399
101.33 kPa, x1 = 0.6163 | 0.394
101.33 kPa, x1 = 0.7002 | 0.382
101.33 kPa, x1 = 0.7768 | 0.37
101.33 kPa, x1 = 0.8313 | 0.363
101.33 kPa, x1 = 0.898 | 0.356
101.33 kPa, x1 = 0.9429 | 0.346

COCCOCCOCCOCCOC + CO
viscosity [mPa·s], 100 kPa
Conditions | 293.15 K | 298.15 K | 303.15 K
x2 = 0.0463 | 3.726 | 3.3 | 2.916
x2 = 0.1031 | 3.616 | 3.209 | 2.845
x2 = 0.1978 | 3.408 | 3.036 | 2.691
x2 = 0.3111 | 3.132 | 2.803 | 2.493
x2 = 0.3886 | 2.919 | 2.611 | 2.334
x2 = 0.494 | 2.592 | 2.326 | 2.089
x2 = 0.5935 | 2.25 | 2.031 | 1.829
x2 = 0.6966 | 1.868 | 1.696 | 1.537
x2 = 0.7966 | 1.467 | 1.344 | 1.225
x2 = 0.8472 | 1.243 | 1.145 | 1.047
x2 = 0.8972 | 1.024 | 0.948 | 0.871
x2 = 0.9495 | 0.803 | 0.744 | 0.683

Clc1cccc2ccccc12 + CO
viscosity [mPa·s], 101.33 kPa
Conditions | x1 = 0.0998 | x1 = 0.1992 | x1 = 0.302 | x1 = 0.4003 | x1 = 0.4961 | x1 = 0.5978 | x1 = 0.6961 | x1 = 0.801 | x1 = 0.8922
298.15 K | 0.814 | 1.096 | 1.372 | 1.617 | 1.847 | 2.064 | 2.237 | 2.454 | 2.67
303.15 K | 0.75 | 1.002 | 1.249 | 1.468 | 1.672 | 1.863 | 2.012 | 2.197 | 2.385
308.15 K | 0.689 | 0.918 | 1.142 | 1.336 | 1.516 | 1.683 | 1.818 | 1.984 | 2.157

COCCOCCOCCOCCOC + COC(=O)OC
298.15 K, 101.33 kPa
Conditions | viscosity [mPa·s]
x1 = 0.0013 | 0.595
x1 = 0.0051 | 0.603
x1 = 0.0117 | 0.623
x1 = 0.0228 | 0.642
x1 = 0.0349 | 0.673
x1 = 0.0584 | 0.726
x1 = 0.0861 | 0.792
x1 = 0.1164 | 0.875
x1 = 0.1595 | 0.994
x1 = 0.2094 | 1.132
x1 = 0.3042 | 1.414
x1 = 0.3316 | 1.499
x1 = 0.3593 | 1.576
x1 = 0.3994 | 1.703
x1 = 0.4379 | 1.815
x1 = 0.477 | 1.945
x1 = 0.5477 | 2.159
x1 = 0.6174 | 2.382
x1 = 0.6892 | 2.606
x1 = 0.7492 | 2.781
x1 = 0.7839 | 2.888
x1 = 0.8643 | 3.113
x1 = 0.9142 | 3.237
x1 = 0.949 | 3.324
x1 = 0.9732 | 3.369

Clc1ccccc1 + COC(=O)OC
Conditions | viscosity [mPa·s]
298.15 K, 101 kPa, x2 = 0.238 | 0.7093

CCCC(C)C + COC(C)(C)C
298.15 K, 101.33 kPa
Conditions | viscosity [mPa·s]
x2 = 0.0969 | 0.2794
x2 = 0.2016 | 0.2825
x2 = 0.3021 | 0.2858
x2 = 0.4006 | 0.2902
x2 = 0.5007 | 0.2956
x2 = 0.5985 | 0.3014
x2 = 0.6965 | 0.3079
x2 = 0.7978 | 0.3154
x2 = 0.8845 | 0.3228

Clc1ccccc1 + COC(C)(C)C
viscosity [mPa·s], 101.33 kPa
Conditions | x2 = 0.0948 | x2 = 0.1898 | x2 = 0.2929 | x2 = 0.3832 | x2 = 0.4974 | x2 = 0.6209 | x2 = 0.7014 | x2 = 0.8089 | x2 = 0.9102
293.15 K | 0.7752 | 0.7379 | 0.6754 | 0.6443 | 0.5825 | 0.5368 | 0.4905 | 0.456 | 0.4191
298.15 K | 0.7335 | 0.6981 | 0.6506 | 0.6036 | 0.5697 | 0.5019 | 0.4658 | 0.4246 | 0.3945

COCCOCCOCCOCCOC + COC(C)=O
viscosity [mPa·s], 101 kPa
Conditions | 298.15 K | 308.15 K | 318.15 K
x1 = 0.0089 | 0.382 | 0.344 | 0.325
x1 = 0.0206 | 0.404 | 0.364 | 0.339
x1 = 0.0384 | 0.439 | 0.392 | 0.365
x1 = 0.0758 | 0.519 | 0.459 | 0.42
x1 = 0.1174 | 0.61 | 0.539 | 0.484
x1 = 0.1646 | 0.729 | 0.63 | 0.56
x1 = 0.231 | – | 0.773 | 0.677
x1 = 0.2993 | 1.096 | 0.924 | 0.749
x1 = 0.3846 | 1.349 | 1.11 | 0.947
x1 = 0.453 | 1.581 | 1.294 | 1.09
x1 = 0.5398 | 1.854 | 1.503 | 1.254
x1 = 0.6662 | 2.272 | 1.832 | 1.504
x1 = 0.719 | 2.475 | 1.961 | 1.624
x1 = 0.7865 | 2.669 | 2.143 | 1.751
x1 = 0.8413 | 2.902 | 2.278 | 1.858
x1 = 0.8673 | 2.957 | 2.358 | 1.919
x1 = 0.8983 | 3.08 | 2.43 | 1.956
x1 = 0.9205 | 3.127 | 2.478 | 1.991
x1 = 0.9565 | 3.266 | 2.547 | 2.058

Clc1ccccc1 + COC(C)=O
viscosity [mPa·s], 101 kPa
Conditions | 298.15 K | 308.15 K
x2 = 0.0395 | 0.734 | 0.662
x2 = 0.1406 | 0.685 | 0.619
x2 = 0.2347 | 0.642 | 0.581
x2 = 0.3286 | 0.602 | 0.547
x2 = 0.4168 | 0.566 | 0.516
x2 = 0.4647 | 0.548 | 0.5
x2 = 0.5282 | 0.525 | 0.479
x2 = 0.6291 | 0.491 | 0.448
x2 = 0.7341 | 0.458 | 0.418
x2 = 0.8394 | 0.427 | 0.39
x2 = 0.9331 | 0.401 | 0.367

CCc1ccccc1 + COCCO
viscosity [mPa·s], 101 kPa
Conditions | 298.15 K | 308.15 K
x2 = 0.0558 | 0.65 | 0.548
x2 = 0.1525 | 0.679 | 0.577
x2 = 0.2511 | 0.717 | 0.612
x2 = 0.3504 | 0.766 | 0.655
x2 = 0.4525 | 0.831 | 0.708
x2 = 0.5021 | 0.869 | 0.738
x2 = 0.5522 | 0.911 | 0.771
x2 = 0.6499 | 1.008 | 0.844
x2 = 0.75 | 1.131 | 0.933
x2 = 0.853 | 1.291 | 1.043
x2 = 0.9546 | 1.488 | 1.175

Clc1ccccc1 + COCCO
303.15 K, 101.33 kPa
Conditions | viscosity [mPa·s]
x2 = 0.1075 | 0.749
x2 = 0.2093 | 0.782
x2 = 0.3086 | 0.836
x2 = 0.4113 | 0.894
x2 = 0.4993 | 0.952
x2 = 0.6006 | 1.028
x2 = 0.7032 | 1.113
x2 = 0.8023 | 1.201
x2 = 0.9234 | 1.309

CCCCC(CC)CN (centres undefined) + COCCOCCOC
viscosity [mPa·s], 101.33 kPa
Conditions | x2 = 0.0967 | x2 = 0.194 | x2 = 0.292 | x2 = 0.391 | x2 = 0.491 | x2 = 0.591 | x2 = 0.692 | x2 = 0.794 | x2 = 0.897
303.2 K | 0.98 | 0.97 | 0.96 | 0.95 | 0.94 | 0.93 | 0.92 | 0.93 | 0.94
313.2 K | 0.86 | 0.85 | 0.84 | 0.82 | 0.81 | 0.8 | 0.79 | 0.8 | 0.81

CCCCC(CC)CN (centres undefined) + COCCOCCOCCOC
viscosity [mPa·s], 101.33 kPa
Conditions | x2 = 0.0746 | x2 = 0.153 | x2 = 0.237 | x2 = 0.326 | x2 = 0.42 | x2 = 0.521 | x2 = 0.629 | x2 = 0.744 | x2 = 0.867
303.2 K | 1.02 | 1.05 | 1.13 | 1.19 | 1.25 | 1.32 | 1.39 | 1.54 | 1.64
313.2 K | 0.88 | 0.9 | 0.97 | 1.01 | 1.06 | 1.11 | 1.16 | 1.31 | 1.39

CCCCC(CC)CN (centres undefined) + COCCOCCOCCOCCOC
viscosity [mPa·s], 101.33 kPa
Conditions | x2 = 0.0607 | x2 = 0.127 | x2 = 0.199 | x2 = 0.279 | x2 = 0.368 | x2 = 0.466 | x2 = 0.576 | x2 = 0.699 | x2 = 0.84
303.2 K | 1.04 | 1.14 | 1.26 | 1.39 | 1.58 | 1.74 | 1.99 | 2.24 | 2.55
313.2 K | 0.89 | 0.97 | 1.07 | 1.16 | 1.3 | 1.43 | 1.59 | 1.87 | 2.09

COCOCOCOCOC + COCOCOC
100 kPa
Conditions | viscosity [mPa·s]
298.15 K, x2 = 0.65 | 1.125
303.15 K, x2 = 0.12 | 1.575

COCOCOCOCOC + COCOCOCOC
Conditions | viscosity [mPa·s]
293.15 K, 100 kPa, x2 = 0.12 | 1.895

— the CheMixHub viscosity set
